Reference: ChEMBL document CHEMBL4680219, “Structure-thermodynamics-relationships of hepatitis C viral NS3 protease inhibitors” (Eur J Med Chem, 2020)

How the values were obtained:
[1] = Binding affinity to HCV NS3/4a protease by isothermal titration calorimetry; parameters: species or system Hepacivirus hominis
[2] = Inhibition of HCV NS3/4a protease using biotin-DDIVPCSMSY[125I]TW as substrate by radiometric assay; parameters: species or system Hepacivirus hominis

Row | Kd [1] [µM] | Ki [2] [µM] | Compound
1 | 0.83 |  | C=CC1C[C@@]1(NC(=O)[C@@H]1C[C@@H](Oc2ccnc(-c3ccccc3)c2)CN1C(=O)[C@@H](NC(=O)OC(C)(C)C)C(C)(C)C)C(=O)O (some centres undefined)
2 | 0.19 | 0.14 | C=CC1C[C@@]1(NC(=O)[C@@H]1C[C@@H](Oc2ccnc3ccccc23)CN1C(=O)[C@@H](NC(=O)OC(C)(C)C)C(C)(C)C)C(=O)O (some centres undefined)
3 | 0.18 | 0.05 | C=CC1C[C@@]1(NC(=O)[C@@H]1C[C@@H](Oc2ccnc3cc(OC)ccc23)CN1C(=O)[C@@H](NC(=O)OC(C)(C)C)C(C)(C)C)C(=O)O (some centres undefined)

Continued, compound first:

Row | Compound | Kd [1] [µM] | Ki [2] [µM]
4 | C=CC1C[C@@]1(NC(=O)[C@@H]1C[C@@H](Oc2cc(-c3ccccc3)nc3ccccc23)CN1C(=O)[C@H](C)NC(=O)OC(C)(C)C)C(=O)O (some centres undefined) | 2.63 | 
5 | C=CC1C[C@@]1(NC(=O)[C@@H]1C[C@@H](Oc2cc(-c3ccccc3)nc3ccccc23)CN1C(=O)[C@@H](NC(=O)OC(C)(C)C)C(C)C)C(=O)O (some centres undefined) | 0.25 | 
6 | C=CC1C[C@@]1(NC(=O)[C@@H]1C[C@@H](Oc2cc(-c3ccccc3)nc3ccccc23)CN1C(=O)CNC(=O)OC(C)(C)C)C(=O)O (some centres undefined) | 77 | 
7 | C=CC1C[C@@]1(NC(=O)[C@@H]1C[C@@H](Oc2cc(-c3ccccc3)nc3cc(OC)ccc23)CN1C(=O)[C@@H](NC(=O)OC(C)(C)C)C(C)(C)C)C(=O)O (some centres undefined) | 0.019 | 0.02
8 | C=CC1C[C@@]1(NC(=O)[C@@H]1C[C@@H](Oc2cc(-c3ccccc3)nc3ccccc23)CN1C(=O)[C@H](CC)NC(=O)OC(C)(C)C)C(=O)O (some centres undefined) | 0.9 | 
9 | C=CC1C[C@@]1(NC(=O)[C@@H]1C[C@@H](Oc2cc(-c3ccccc3)nc3ccccc23)CN1C(=O)[C@@H](NC(=O)OC(C)(C)C)C(C)(C)C)C(=O)O (some centres undefined) | 0.1 | 
10 | C=CC1C[C@@]1(NC(=O)[C@@H]1C[C@@H](Oc2ccncc2)CN1C(=O)[C@@H](NC(=O)OC(C)(C)C)C(C)(C)C)C(=O)O (some centres undefined) | 13.5 | 29
